The text below walks through data of patent publication US9573913B2, “Cathepsin cysteine protease inhibitors” (Merck Sharp & Dohme Corp., priority 2013, dated 2017).

In assay [1] the target is human cathepsin K (UniProt P43236). Kind of assay: Cathepsin K Assay (hrbCat K). It is filed as biochemical. The following applies: Z-Leu-Arg-AMC substrate, pH 5.5, 15 min preincubation; read-out: hrbCat K (IP (nM)). The gist of the method: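 Human cathepsin K (0.4 nM) was preincubated 15 min at room temperature with compound in 50 mM MES pH 5.5, 2.5 mM EDTA, 2.5 mM DTT and 10% DMSO. Inhibition was fitted to a dose-response model.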

In assay [2] the target is T1, human cathepsin F (Homo sapiens, UniProt Q9UBX1).
T1 sequence (Q9UBX1 271-484): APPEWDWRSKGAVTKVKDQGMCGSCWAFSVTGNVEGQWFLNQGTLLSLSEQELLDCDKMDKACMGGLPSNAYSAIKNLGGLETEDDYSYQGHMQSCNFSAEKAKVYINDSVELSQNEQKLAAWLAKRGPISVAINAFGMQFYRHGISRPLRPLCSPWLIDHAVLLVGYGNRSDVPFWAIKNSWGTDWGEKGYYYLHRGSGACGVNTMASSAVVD
Kind of assay: Cathepsin F assay (hCat F). It is filed as biochemical. The note with it: Z-Phe-Arg-AMC substrate, pH 5.5, 15 min preincubation; read-out: hCat F (IP (nM)). The procedure, abridged: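 AMC release from Z-Phe-Arg-AMC, added at 8 μM, was monitored fluorometrically (360/460 nm) for 20 min after 10 nM enzyme and compound had been preincubated 15 min at room temperature. Buffer: MES 50 mM pH 5.5, EDTA and DTT 2.5 mM each, 10% DMSO. Compound DMSO dilutions spanned 500–0.025 μM (3-fold). Dose-response fitting gave % inhibition.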

SMILES strings stand for the structures.

As to `N#CC1(NC(=O)[C@@H]2CCCC[C@H]2c2nc(CCC(F)(F)F)sc2-c2ccc(N3CCS(=O)(=O)CC3)cc2)CC1` [Example 24, (1R,2R)-N-(1-cyanocyclopropyl)-2-(5-(4-(1,1-dioxidothiomorpho-lino)phenyl)-2-(3,3,3-trifluoropropyl)thia-zol-4-yl)cyclohexane-carboxamide], the IC50 in assay [1] came to 5.6 nM; in assay [2], 2230 nM.

`N#CC1(NC(=O)[C@@H]2CCCC[C@H]2c2nc(C3CCC(F)(F)C3)sc2-c2ccc(N3CCS(=O)(=O)CC3)cc2)CC1` (mixture of isomers) [Example 154, (1R,2R)-N-(1-cyanocyclopropyl)-2-(2-((R and S)-3,3-difluorocyclopentyl)-5-(4-(1,1-dioxidothiomorpho-lino)phenyl)thiazol-4-yl)cyclohexane-carboxamide]: the IC50 in assay [1] worked out at 4.5 nM; in assay [2], 1000 nM.

For the compound `CN=S1(=O)CCN(c2ccc(-c3sc(-c4ccc(F)cc4)nc3[C@@H]3CC[C@H](F)C[C@H]3C(=O)NC3(C#N)CC3)cc2)CC1` [Example 177, (1R,2R,5S)-N-(1-cyanocyclopropyl)-5-fluoro-2-(2-(4-fluorophenyl)-5-(4-(1-(methylimino)-1-oxidothiomorpholino)phenyl)thiazol-4-yl)cyclohexane-carboxamide], the IC50 in assay [1] is 3.5 nM; in assay [2], 3330 nM.

On to `Cc1ccc(-c2nc([C@@H]3CC[C@H](F)C[C@H]3C(=O)NC3(C#N)CC3)c(-c3ccc(N4CCOCC4)cc3)s2)nn1` [Example 216, (1R,2R,5S)-N-(1-cyanocyclopropyl)-5-fluoro-2-(2-(6-methylpyridazin-3-yl)-5-(4-morpholinophenyl)thiazol-4-yl)cyclohexane-carboxamide], for which the values for the IC50 in assay [1] and in assay [2] were 7.1 nM and 2480 nM, respectively.

In the case of `N#CC1(NC(=O)[C@@H]2CCCC[C@H]2c2nc(NS(=O)(=O)c3ccccc3)sc2-c2ccc(N3CCS(=O)(=O)CC3)cc2)CC1` [Example 200, (1R,2R)-N-(1-cyanocyclopropyl)-2-(5-(4-(1,1-dioxidothiomorpho-lino)phenyl)-2-(phenylsulfonamido)thiazol-4-yl)cyclohexane-carboxamide], the IC50 in assay [1] is 116 nM; in assay [2], no less than 10000 nM.

Turning to `CN=S1(=O)CCN(c2ccc(-c3oc(C(C)(C)C)nc3[C@@H]3CC[C@H](F)C[C@H]3C(=O)N[C@@H](C)C#N)cc2)CC1` [Example 173, (1R,2R,5S)-2-(2-(tert-butyl)-5-(4-(1-(methylimino)-1-oxidothiomorpholino)phenyl)oxazol-4-yl)-N-((S)-1-cyanoethyl)-5-fluorocyclohexane-carboxamide], the values for the IC50 in assay [1] and in assay [2] were 4.7 nM and 6900 nM, respectively.

Regarding `N#CC(CC(F)(F)F)NC(=O)[C@@H]1CCCC[C@H]1c1nc(-c2ccc(F)cn2)sc1-c1ccc(N2CCS(=O)(=O)CC2)cc1` (single isomer, unassigned) [Example 194, (1R,2R)-N-((S or R)-1-cyano-3,3,3-trifluoropropyl)-2-(5-(4-(1,1-dioxidothiomorpho-lino)phenyl)-2-(5-fluoropyridin-2-yl)thiazol-4-yl)cyclohexane-carboxamide], the IC50 in assay [1] turned out to be 3.1 nM; in assay [2], 1920 nM.

For `N#CC1(NC(=O)[C@@H]2CCCC[C@H]2c2nc(-c3ccc(F)c(C4CCOCC4)c3)sc2-c2ccc(N3CCS(=O)(=O)CC3)cc2)CC1` [Example 122, (1R,2R)-N-(1-cyanocyclopropyl)-2-(5-(4-(1,1-dioxidothiomorpho-lino)phenyl)-2-(4-fluoro-3-(tetrahydro-2H-pyran-4-yl)phenyl)thiazol-4-yl)cyclohexane-carboxamide], the IC50 in assay [1] worked out at 2.2 nM; in assay [2], 1110 nM.

Turning to `N#CC1(NC(=O)[C@@H]2CCCC[C@H]2c2nc(CC(F)(F)F)sc2-c2ccc(N3CCS(=O)(=O)CC3)cc2)CC1` [Example 22, (1R,2R)-N-(1-cyanocyclopropyl)-2-(5-(4-(1,1-dioxidothiomorpho-lino)phenyl)-2-(2,2,2-trifluoroethyl)thia-zol-4-yl)cyclohexane-carboxamide], the results for the IC50 in assay [1] and in assay [2] were 6.6 nM and 8520 nM, respectively.

For `CC(C)(C)c1nc([C@@H]2CCC(F)(F)C[C@H]2C(=O)NC2(C#N)CC2)c(-c2ccc(N3CCS(=O)(=O)CC3)cc2)o1` [Example 166, (1R,2R)-2-(2-(tert-butyl)-5-(4-(1,1-dioxidothiomorpho-lino)phenyl)oxazol-4-yl)-N-(1-cyanocyclopropyl)-5,5-difluorocyclohexane-carboxamide], the figures for the IC50 in assay [1] and in assay [2] were 0.7 nM and 356 nM, respectively.

`N#Cc1ccc(-c2nc([C@@H]3CCCC[C@H]3C(=O)NC3(C#N)CC3)c(-c3ccc(N4CCS(=O)(=O)CC4)cc3)s2)cc1` [Example 84, (1R,2R)-N-(1-cyanocyclopropyl)-2-(2-(4-cyanophenyl)-5-(4-(1,1-dioxidothiomorpho-lino)phenyl)thiazol-4-yl)cyclohexane-carboxamide]: the IC50 is 0.7 nM in assay [1] and 1410 nM in assay [2].

For the compound `COc1cnc(-c2nc([C@@H]3CCCC[C@H]3C(=O)NC3(C#N)CC3)c(-c3ccc(N4CCS(=O)(=O)CC4)cc3)s2)nc1` [Example 81, (1R,2R)-N-(1-cyanocyclopropyl)-2-(5-(4-(1,1-dioxidothiomorpho-lino)phenyl)-2-(5-methoxypyrimidin-2-yl)thiazol-4-yl)cyclohexane-carboxamide], the IC50 was 48.4 nM in assay [1] and no less than 10000 nM in assay [2].

Take `Cc1nc([C@@H]2CCCC[C@H]2C(=O)NCC#N)c(-c2ccc(N3CCS(=O)(=O)CC3)cc2)s1` [Example 17, (1R,2R)-N-(cyanomethyl)-2-(5-(4-(1,1-dioxidothiomorpho-lino)phenyl)-2-methylthiazol-4-yl)cyclohexane-carboxamide]: the IC50 is 2 nM in assay [1] and 1140 nM in assay [2].

On to `Cc1nc([C@H]2CCCC[C@@H]2C(=O)NCC#N)c(-c2ccc(C(=O)N3CCOCC3)cc2)s1` [Example 248, (1S,2S)-N-(cyanomethyl)-2-(2-methyl-5-(4-(morpholine-4-carbonyl)phenyl)thiazol-4-yl)cyclohexanecarboxamide], for which the IC50 is 6600 nM in assay [1] and no less than 10000 nM in assay [2].

Take `CC1CC1(C#N)NC(=O)[C@@H]1CCCC[C@H]1c1nc(-c2ccc(F)cn2)sc1-c1ccc(N2CCS(=O)(=O)CC2)cc1` (single isomer, unassigned) [Example 202, (1R,2R)-N-((1S,2S or 1S,2R or 1R,2S or 1R,2R)-1-cyano-2-methylcyclopropyl)-2-(5-(4-(1,1-dioxidothiomorpho-lino)phenyl)-2-(5-fluoropyridin-2-yl)thiazol-4-yl)cyclohexane-carboxamide]: the IC50 in assay [1] is 6.6 nM; in assay [2], no less than 10000 nM.

As to `N#CC1(NC(=O)[C@@H]2CCCC[C@H]2c2nc(-c3cncc(F)c3)sc2-c2ccc(N3CCS(=O)(=O)CC3)cc2)CC1` [Example 44, (1R,2R)-N-(1-cyanocyclopropyl)-2-(5-(4-(1,1-dioxidothiomorpho-lino)phenyl)-2-(5-fluoropyridin-3-yl)thiazol-4-yl)cyclohexane-carboxamide], the IC50 was 0.7 nM in assay [1] and 790 nM in assay [2].

As to `N#CC1(NC(=O)[C@@H]2CCCC[C@H]2c2nc(Oc3ccc(F)cc3)sc2-c2ccc(N3CCS(=O)(=O)CC3)cc2)CC1` [Example 189, (1R,2R)-N-(1-cyanocyclopropyl)-2-(5-(4-(1,1-dioxidothiomorpho-lino)phenyl)-2-(4-fluorophenoxy)thia-zol-4-yl)cyclohexane-carboxamide], the IC50 in assay [1] stood at 5.1 nM; in assay [2], 788 nM.

Take `Cc1ccc(-c2nc([C@@H]3CC[C@H](F)C[C@H]3C(=O)N[C@@H](C)C#N)c(-c3ccc(N4CCS(=O)(=O)CC4)cc3)s2)nn1` [Example 195, (1R,2R,5S)-N-((S)-1-cyanoethyl)-2-(5-(4-(1,1-dioxidothiomorpho-lino)phenyl)-2-(6-methylpyridazin-3-yl)thiazol-4-yl)-5-fluorocyclohexane-carboxamide]: the IC50 in assay [1] came out at 1.4 nM; in assay [2], 1940 nM.

`Cc1cc(C#N)ccc1-c1nc([C@@H]2CCCC[C@H]2C(=O)NC2(C#N)CC2)c(-c2ccc(N3CCS(=O)(=O)CC3)cc2)s1` [Example 95, (1R,2R)-2-(2-(4-cyano-2-methylphenyl)-5-(4-(1,1-dioxidothiomorpho-lino)phenyl)thiazol-4-yl)-N-(1-cyanocyclopropyl) cyclohexanecarbox-amide]: the IC50 in assay [1] is 3.6 nM; in assay [2] it was 1120 nM.

`N#CC1(NC(=O)[C@@H]2C[C@@H](F)CC[C@H]2c2nc(CF)sc2-c2ccc(N3CCS(=O)(=O)CC3)cc2)CC1` [Example 238, (1R,2R,5S)-N-(1-cyanocyclopropyl)-2-(5-(4-(1,1-dioxidothiomorpho-lino)phenyl)-2-(fluoromethyl)thia-zol-4-yl)-5-fluorocyclohexane-carboxamide]: the IC50 amounted to 3.5 nM in assay [1] and 3170 nM in assay [2].

`N#CC1(NC(=O)[C@@H]2CCCC[C@H]2c2nc(NC3CCCCC3)sc2-c2ccc(N3CCS(=O)(=O)CC3)cc2)CC1` [Example 178, (1R,2R)-N-(1-cyanocyclopropyl)-2-(2-(cyclohexylamino)-5-(4-(1,1-dioxidothiomorpho-lino)phenyl)thiazol-4-yl)cyclohexane-carboxamide]: the results for the IC50 in assay [1] and in assay [2] were 41.2 nM and 1000 nM, respectively.
